Laboratory results taken from patent US11351173B2, “Substituted pyrrolo[1,2-a]pyrimidines and their use in the treatment of medical disorders” (Bial—R&D Investments, S.A., priority 2014, dated 2022).
Values after ≈ are worked out from the molar mass of the structure shown.

Columns and labels:
[1] = target: T1, glucocerebrosidase (Gcase) (Homo sapiens, UniProt P04062); assay: Glucocerebrosidase (Gcase) activation assay, 4-methylumbelliferyl-beta-D-glucopyranoside substrate, fluorescence readout; type: biochemical; details: for activation at 0.1 µM / Percent Gcase Activation, 0.1 μM Test Compound: test compound at 0.1 μM; for activation at 0.1 µM: read-out: Percent Gcase Activation, 0.1 μM Test Compound; for activation at 1 µM / Percent Gcase Activation, 1 μM Test Compound: test compound at 1.0 μM; for activation at 1 µM: read-out: Percent Gcase Activation, 1 μM Test Compound
T1 construct: micellar solution containing 10 nM GCase and 100 nM saposin C
T1 sequence (P04062 40-536): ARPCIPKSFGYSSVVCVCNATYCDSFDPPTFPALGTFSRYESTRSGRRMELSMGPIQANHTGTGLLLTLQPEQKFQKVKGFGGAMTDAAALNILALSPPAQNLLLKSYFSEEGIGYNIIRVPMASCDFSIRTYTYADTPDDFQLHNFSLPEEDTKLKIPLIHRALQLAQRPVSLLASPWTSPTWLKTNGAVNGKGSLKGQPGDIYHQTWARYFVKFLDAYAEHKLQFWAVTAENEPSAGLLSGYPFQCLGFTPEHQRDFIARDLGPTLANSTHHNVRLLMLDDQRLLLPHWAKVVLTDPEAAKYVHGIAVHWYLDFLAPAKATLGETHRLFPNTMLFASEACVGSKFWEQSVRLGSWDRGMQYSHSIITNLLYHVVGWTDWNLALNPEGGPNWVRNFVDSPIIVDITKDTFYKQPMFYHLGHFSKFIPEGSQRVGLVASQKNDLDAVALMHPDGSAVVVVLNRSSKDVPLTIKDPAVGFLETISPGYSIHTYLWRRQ
Outline: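 Fluorescence (ex 365 nm, em 440 nm) read after glycine pH 12.5 stop of a 15 min room-temperature reaction. GCase 10 nM plus saposin C 100 nM in PS/triton micelles, pH 4.7, preincubated 30 min with compound; substrate solution held 2 mM 4-MU-beta-glucoside. Screened at 1.0 and 0.1 μM; 8-point, 3-fold curves from 5 μM top.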

[2] = Compound solubility in water; details: for solubility: Compound Solubility in Water

Structure (SMILES): CCCCO[C@H]1CC[C@H](NC(=O)c2ccn3c(C)cc(Cl)nc23)CC1 [III-65]
- activation at 0.1 µM [1]: > 20%
- activation at 1 µM [1]: > 60%
- solubility ([2]; water): 8.2 µg/mL (≈ 22.5 µM)

Structure (SMILES): Cc1cc(Br)nc2c(C(=O)Nc3ccc(-c4cocn4)cc3)ccn12 [III-40]
- activation at 0.1 µM [1]: 10 to 20%
- activation at 1 µM [1]: > 60%
- solubility ([2]; water): 0.3 µg/mL (≈ 0.755 µM)

Structure (SMILES): Cc1cc(C)n2ccc(C(=O)Nc3ccc(-c4cocn4)nc3)c2n1 [III-3]
- activation at 0.1 µM [1]: < 10%
- activation at 1 µM [1]: 30 to 60%
- solubility ([2]; water): < 1.5 µg/mL

Structure (SMILES): Cc1cc(C)n2ccc(C(=O)Nc3ccc(-c4cocn4)cc3)c2n1 [III-1]
- activation at 0.1 µM [1]: > 20%
- activation at 1 µM [1]: > 60%
- solubility ([2]; water): < 1.5 µg/mL

Structure (SMILES): COc1ccccc1C(C)(C)NC(=O)c1ccn2c(C)cc(C)nc12 [III-233]
- activation at 0.1 µM [1]: > 20%
- activation at 1 µM [1]: > 60%
- solubility ([2]; water, in water): 2.1 µg/mL (≈ 6.22 µM)

Structure (SMILES): COCCOc1ccc2c(c1)C(NC(=O)c1ccn3c(C)cc(C)nc13)CC2 (stereo not drawn) [III-103]
- activation at 0.1 µM [1]: 10 to 20%
- activation at 1 µM [1]: > 60%
- solubility ([2]; water): 11.8 µg/mL (≈ 31.1 µM)

Structure (SMILES): Cc1cc(C)n2ccc(C(=O)Nc3ccc(-c4ccco4)nc3)c2n1 [III-10]
- activation at 0.1 µM [1]: > 20%
- activation at 1 µM [1]: > 60%
- solubility ([2]; water): 0.3 µg/mL (≈ 0.903 µM)

Structure (SMILES): COCCOc1ccc2c(c1)C(NC(=O)c1ccn3c(C)cc(C)nc13)CCC2 (stereo not drawn) [III-104]
- activation at 0.1 µM [1]: 10 to 20%
- activation at 1 µM [1]: > 60%
- solubility ([2]; water): 5.8 µg/mL (≈ 14.7 µM)

Structure (SMILES): COCC#Cc1ccc(NC(=O)c2ccn3c(C)cc(C)nc23)cc1 [III-4]
- activation at 0.1 µM [1]: > 20%
- activation at 1 µM [1]: > 60%
- solubility ([2]; water): < 1.5 µg/mL

Structure (SMILES): Cc1ccnc2c(C(=O)Nc3ccc(-c4ncco4)cc3)ccn12 [III-256]
- activation at 0.1 µM [1]: < 10%
- activation at 1 µM [1]: > 60%
- solubility ([2]; water, in water): 4 µg/mL (≈ 12.6 µM)

Structure (SMILES): Cc1cc(C)n2ccc(C(=O)Nc3ccc(-c4ccncc4)cc3)c2n1 [III-11]
- activation at 0.1 µM [1]: 10 to 20%
- activation at 1 µM [1]: 30 to 60%
- solubility ([2]; water): 0.01 µg/mL (≈ 0.0292 µM)

Structure (SMILES): Cc1cc(C)n2ccc(C(=O)NC3CCC(c4ncco4)CC3)c2n1 (stereo not drawn) [III-246]
- Percent Gcase Activation, 0.1 μM Test Compound [1]: * (less than 10% Gcase activation)
- Percent Gcase Activation, 1 μM Test Compound [1]: + (less than 30% Gcase activation)
- Compound Solubility in Water ([2]; in water): 20.3 µg/mL

Structure (SMILES): C#Cc1ccc(NC(=O)c2ccn3c(C)cc(C)nc23)c(OC)c1 [III-129]
- activation at 0.1 µM [1]: > 20%
- activation at 1 µM [1]: > 60%
- solubility ([2]; water): 0.3 µg/mL (≈ 0.939 µM)

Structure (SMILES): Cc1cc(C)n2ccc(C(=O)Nc3ccc(C4=NCCO4)cc3Cl)c2n1 [III-219]
- activation at 0.1 µM [1]: > 20%
- activation at 1 µM [1]: > 60%
- solubility ([2]; water, in water): 0.9 µg/mL (≈ 2.44 µM)

Structure (SMILES): Cc1cc(C)n2ccc(C(=O)Nc3ccc4nc(C)sc4c3)c2n1 [III-88]
- activation at 0.1 µM [1]: 10 to 20%
- activation at 1 µM [1]: > 60%
- solubility ([2]; water): 0.1 µg/mL (≈ 0.297 µM)

Structure (SMILES): Cc1cc(C(F)(F)F)nc2c(C(=O)NC3CCC4(CCCCO4)C3)ccn12 (stereo not drawn) [III-248]
- activation at 0.1 µM [1]: 10 to 20%
- activation at 1 µM [1]: > 60%
- Compound Solubility in Water ([2]; in water): 28.2 µg/mL

Structure (SMILES): Cc1cc(C)n2ccc(C(=O)Nc3ccc4c(c3)C(Oc3ccccn3)CC4)c2n1 (stereo not drawn) [III-121]
- activation at 0.1 µM [1]: < 10%
- activation at 1 µM [1]: 30 to 60%
- solubility ([2]; water): 0.2 µg/mL (≈ 0.502 µM)

Structure (SMILES): Cc1cc(C)n2ccc(C(=O)Nc3ccc(-n4ccnc4)cc3)c2n1 [III-86]
- activation at 0.1 µM [1]: < 10%
- activation at 1 µM [1]: < 30%
- solubility ([2]; water): 0.3 µg/mL (≈ 0.905 µM)

Structure (SMILES): O=C(N[C@H]1CCCc2ccccc21)c1ccn2c(C3CC3)ccnc12 [III-161]
- activation at 0.1 µM [1]: < 10%
- activation at 1 µM [1]: 30 to 60%
- solubility ([2]; water): 0.9 µg/mL (≈ 2.72 µM)

Structure (SMILES): Cc1cc(C)n2ccc(C(=O)NC3CCCc4ccc(-c5cocn5)cc43)c2n1 (stereo not drawn) [III-122]
- activation at 0.1 µM [1]: 10 to 20%
- activation at 1 µM [1]: > 60%
- solubility ([2]; water): 0.8 µg/mL (≈ 2.07 µM)

Structure (SMILES): Cc1cc(C)n2ccc(C(=O)NC3CCCc4ccncc43)c2n1 (stereo not drawn) [III-227]
- activation at 0.1 µM [1]: < 10%
- activation at 1 µM [1]: < 30%
- solubility ([2]; water, in water): 15.7 µg/mL (≈ 49 µM)

Structure (SMILES): Cc1cc(C)n2ccc(C(=O)NC3CCCC34CCCCO4)c2n1 (stereo not drawn) [III-139]
- Percent Gcase Activation, 0.1 μM Test Compound [1]: * (less than 10% Gcase activation)
- Percent Gcase Activation, 1 μM Test Compound [1]: +++ (Gcase activation greater than 60%)
- Compound Solubility in Water ([2]; water): 1.4 µg/mL

Structure (SMILES): Cc1cc(C(F)(F)F)n2ccc(C(=O)Nc3ccc(-c4cocn4)cc3)c2n1 [III-254]
- activation at 0.1 µM [1]: < 10%
- activation at 1 µM [1]: < 30%
- solubility ([2]; water, in water): 0.6 µg/mL (≈ 1.55 µM)

Structure (SMILES): Cc1cc(C)n2ccc(C(=O)NC3CCCc4ccc(C#N)cc43)c2n1 (stereo not drawn) [III-209]
- activation at 0.1 µM [1]: 10 to 20%
- activation at 1 µM [1]: > 60%
- solubility ([2]; water, in water): 2.3 µg/mL (≈ 6.68 µM)

Structure (SMILES): C#Cc1ccc(NC(=O)c2ccn3c(C)cc(C)nc23)cc1 [III-2]
- activation at 0.1 µM [1]: > 20%
- activation at 1 µM [1]: > 60%
- solubility ([2]; water): < 1.5 µg/mL
